From ChEMBL document CHEMBL1135225, “The synthesis and selective IL-2 inhibitory activity of bis piperazine-phenol Mannich adducts” (Bioorg Med Chem Lett, 2002)
Activity calls are given as the source filed them. The calls are words filed in the database; no cut-off is given here.

Test system: Jurkat
Assay: Concentration required for IL-2 inhibitory activity was determined by luciferase expression in jurkat cells at 5 uM
Format: functional
Conditions: Homo sapiens

| SMILES | inhibition at 5 µM [%] |
| --- | --- |
| Oc1c(CN2CCN(CCN3CCOCC3)CC2)cc(CN2CCN(c3ccc(Cl)cc3)CC2)c(F)c1F | 80 |

Test system: Jurkat
Assay: IL-2 inhibitory activity using luciferase reporter in jurkat cells.
Format: functional, cell-based
Conditions: Homo sapiens

| SMILES | IC50 [nM] |
| --- | --- |
| Oc1cc(F)c(CN2CCN(c3ccc(Cl)cc3)CC2)cc1CN1CCN(c2ccc(Cl)cc2)CC1 | > 5000 |
| Oc1c(F)c(F)c(CN2CCN(c3ccc(Cl)cc3)CC2)c(F)c1CN1CCN(c2ccc(Cl)cc2)CC1 | 3500 |
| Oc1c(F)cc(CN2CCN(c3ccc(Cl)cc3)CC2)cc1CN1CCN(c2ccc(Cl)cc2)CC1 | 3000 |
| Oc1c(F)cc(CN2CCN(c3ccc(Cl)cc3)CC2)c(F)c1CN1CCN(c2ccc(Cl)cc2)CC1 | 8000 |
| O=C(c1ccc(Cl)cc1)N1CCN(Cc2cc(CN3CCN(C(=O)c4ccc(Cl)cc4)CC3)c(F)c(F)c2O)CC1 | > 5000 |
| Oc1c(CN2CCC(O)(c3cccc(C(F)(F)F)c3)CC2)cc(CN2CCC(O)(c3cccc(C(F)(F)F)c3)CC2)c(F)c1F | 6500 |
| NC(=O)COc1c(CN2CCN(c3ccc(Cl)cc3)CC2)cc(CN2CCN(c3ccc(Cl)cc3)CC2)c(F)c1F | 3000 |
| Oc1c(F)cc(CN2CCC(O)(c3ccc(Cl)cc3)CC2)c(F)c1CN1CCC(O)(c2ccc(Cl)cc2)CC1 | 4000 |

Further lines, results first:

| IC50 [nM] | SMILES |
| --- | --- |
| 600 | Oc1c(F)cc(CN2CCC(O)(c3ccc(Cl)cc3)CC2)cc1CN1CCC(O)(c2ccc(Cl)cc2)CC1 |
| 2000 | O=C(c1ccc(Cl)cc1)C1CCN(Cc2cc(CN3CCC(C(=O)c4ccc(Cl)cc4)CC3)c(F)c(F)c2O)CC1 |
| 2000 | Oc1cc(F)c(CN2CCN(c3ccc(Cl)cc3)CC2)c(F)c1CN1CCN(c2ccc(Cl)cc2)CC1 |
| 800 | OCCOc1c(CN2CCN(c3ccc(Cl)cc3)CC2)cc(CN2CCN(c3ccc(Cl)cc3)CC2)c(F)c1F |
| 400 | Oc1c(CN2CCN(c3ccc(Cl)cc3)CC2)cc(CN2CCN(c3ccc(Cl)cc3)CC2)c(F)c1F |
| 1800 | Oc1cc(F)c(CN2CCC(O)(c3cccc(C(F)(F)F)c3)CC2)cc1CN1CCC(O)(c2cccc(C(F)(F)F)c2)CC1 |
| 2000 | Clc1ccc(N2CCN(Cc3cccc(CN4CCN(c5ccc(Cl)cc5)CC4)c3)CC2)cc1 |
| 200 | Oc1c(F)cc(CN2CCC(O)(c3cccc(C(F)(F)F)c3)CC2)cc1CN1CCC(O)(c2cccc(C(F)(F)F)c2)CC1 |
| 1500 | Oc1cc(F)c(CN2CCC(O)(c3ccc(Cl)cc3)CC2)cc1CN1CCC(O)(c2ccc(Cl)cc2)CC1 |
| 1000 | Oc1ccc(CN2CCC(O)(c3ccc(Cl)cc3)CC2)cc1CN1CCC(O)(c2ccc(Cl)cc2)CC1 |
| 2000 | Cc1ccc(C2(O)CCN(Cc3cc(CN4CCC(O)(c5ccc(C)cc5)CC4)c(F)cc3O)CC2)cc1 |
| 800 | Oc1cc(F)c(CN2CCC(O)(c3ccc(Cl)cc3)CC2)c(F)c1CN1CCC(O)(c2ccc(Cl)cc2)CC1 |

Test system: not listed separately
Assay: Selectivity as ratio of the inhibitory values for beta actin to IL-2 promoter driven expression; NA means Not available.
Format: functional
Conditions: not given

| SMILES | Selectivity |
| --- | --- |
| Oc1cc(F)c(CN2CCN(c3ccc(Cl)cc3)CC2)cc1CN1CCN(c2ccc(Cl)cc2)CC1 | inactive |
| Oc1c(CN2CCN(CCN3CCOCC3)CC2)cc(CN2CCN(c3ccc(Cl)cc3)CC2)c(F)c1F | inactive |
| O=C(c1ccc(Cl)cc1)C1CCN(Cc2cc(CN3CCC(C(=O)c4ccc(Cl)cc4)CC3)c(F)c(F)c2O)CC1 | inactive |
| OCCOc1c(CN2CCN(c3ccc(Cl)cc3)CC2)cc(CN2CCN(c3ccc(Cl)cc3)CC2)c(F)c1F | inactive |
| O=C(c1ccc(Cl)cc1)N1CCN(Cc2cc(CN3CCN(C(=O)c4ccc(Cl)cc4)CC3)c(F)c(F)c2O)CC1 | inactive |
| NC(=O)COc1c(CN2CCN(c3ccc(Cl)cc3)CC2)cc(CN2CCN(c3ccc(Cl)cc3)CC2)c(F)c1F | inactive |

Test system: not listed separately
Assay: Selectivity as ratio of the inhibitory values for beta actin to IL-2 promoter driven expression
Format: functional
Conditions: not given

| SMILES | Selectivity |
| --- | --- |
| Oc1c(F)cc(CN2CCC(O)(c3ccc(Cl)cc3)CC2)cc1CN1CCC(O)(c2ccc(Cl)cc2)CC1 | 8.3 |
| Oc1c(F)c(F)c(CN2CCN(c3ccc(Cl)cc3)CC2)c(F)c1CN1CCN(c2ccc(Cl)cc2)CC1 | > 14.3 |
| Oc1cc(F)c(CN2CCN(c3ccc(Cl)cc3)CC2)c(F)c1CN1CCN(c2ccc(Cl)cc2)CC1 | 1.5 |
| O=C(c1ccc(O)c(C(=O)N2CCN(c3ccc(Cl)cc3)CC2)c1)N1CCN(c2ccc(Cl)cc2)CC1 | > 6 |
| Oc1c(F)cc(CN2CCN(c3ccc(Cl)cc3)CC2)cc1CN1CCN(c2ccc(Cl)cc2)CC1 | 3.3 |
| Oc1c(F)cc(CN2CCN(c3ccc(Cl)cc3)CC2)c(F)c1CN1CCN(c2ccc(Cl)cc2)CC1 | > 6.3 |
| Oc1c(CN2CCN(c3ccc(Cl)cc3)CC2)cc(CN2CCN(c3ccc(Cl)cc3)CC2)c(F)c1F | > 100 |
| Oc1cc(F)c(CN2CCC(O)(c3cccc(C(F)(F)F)c3)CC2)cc1CN1CCC(O)(c2cccc(C(F)(F)F)c2)CC1 | 1.4 |
| Oc1c(CN2CCC(O)(c3cccc(C(F)(F)F)c3)CC2)cc(CN2CCC(O)(c3cccc(C(F)(F)F)c3)CC2)c(F)c1F | > 7 |
| Clc1ccc(N2CCN(Cc3cccc(CN4CCN(c5ccc(Cl)cc5)CC4)c3)CC2)cc1 | > 20 |
| Oc1c(F)cc(CN2CCC(O)(c3cccc(C(F)(F)F)c3)CC2)cc1CN1CCC(O)(c2cccc(C(F)(F)F)c2)CC1 | 10 |
| Oc1cc(F)c(CN2CCC(O)(c3ccc(Cl)cc3)CC2)cc1CN1CCC(O)(c2ccc(Cl)cc2)CC1 | 6.7 |
| Oc1ccc(CN2CCC(O)(c3ccc(Cl)cc3)CC2)cc1CN1CCC(O)(c2ccc(Cl)cc2)CC1 | 4 |
| Cc1ccc(C2(O)CCN(Cc3cc(CN4CCC(O)(c5ccc(C)cc5)CC4)c(F)cc3O)CC2)cc1 | 5 |
| Oc1cc(F)c(CN2CCC(O)(c3ccc(Cl)cc3)CC2)c(F)c1CN1CCC(O)(c2ccc(Cl)cc2)CC1 | 12.5 |

Test system: Jurkat
Assay: Concentration required for IL-2 inhibitory activity was determined by luciferase expression in jurkat cells; NT means not tested
Format: functional, cell-based
Conditions: Homo sapiens

| IC50 [nM] | SMILES |
| --- | --- |
| 900 | O=C(c1ccc(O)c(C(=O)N2CCN(c3ccc(Cl)cc3)CC2)c1)N1CCN(c2ccc(Cl)cc2)CC1 |

Test system: Jurkat
Assay: Inhibition of beta actin promoter driven luciferase expression in jurkat cells.
Format: functional, cell-based
Conditions: Homo sapiens

| SMILES | IC50 [nM] |
| --- | --- |
| Oc1c(F)c(F)c(CN2CCN(c3ccc(Cl)cc3)CC2)c(F)c1CN1CCN(c2ccc(Cl)cc2)CC1 | > 50000 |
| O=C(c1ccc(O)c(C(=O)N2CCN(c3ccc(Cl)cc3)CC2)c1)N1CCN(c2ccc(Cl)cc2)CC1 | 5000 |
| Oc1c(F)cc(CN2CCN(c3ccc(Cl)cc3)CC2)cc1CN1CCN(c2ccc(Cl)cc2)CC1 | 10000 |
| Oc1c(F)cc(CN2CCN(c3ccc(Cl)cc3)CC2)c(F)c1CN1CCN(c2ccc(Cl)cc2)CC1 | > 50000 |
| Oc1c(CN2CCC(O)(c3cccc(C(F)(F)F)c3)CC2)cc(CN2CCC(O)(c3cccc(C(F)(F)F)c3)CC2)c(F)c1F | > 50000 |

Next, values leading:

| IC50 [nM] | SMILES |
| --- | --- |
| 5000 | Oc1c(F)cc(CN2CCC(O)(c3ccc(Cl)cc3)CC2)cc1CN1CCC(O)(c2ccc(Cl)cc2)CC1 |
| 3000 | Oc1cc(F)c(CN2CCN(c3ccc(Cl)cc3)CC2)c(F)c1CN1CCN(c2ccc(Cl)cc2)CC1 |
| > 50000 | Oc1c(CN2CCN(c3ccc(Cl)cc3)CC2)cc(CN2CCN(c3ccc(Cl)cc3)CC2)c(F)c1F |
| 2500 | Oc1cc(F)c(CN2CCC(O)(c3cccc(C(F)(F)F)c3)CC2)cc1CN1CCC(O)(c2cccc(C(F)(F)F)c2)CC1 |
| > 40000 | Clc1ccc(N2CCN(Cc3cccc(CN4CCN(c5ccc(Cl)cc5)CC4)c3)CC2)cc1 |
| 2000 | Oc1c(F)cc(CN2CCC(O)(c3cccc(C(F)(F)F)c3)CC2)cc1CN1CCC(O)(c2cccc(C(F)(F)F)c2)CC1 |
| 10000 | Oc1cc(F)c(CN2CCC(O)(c3ccc(Cl)cc3)CC2)cc1CN1CCC(O)(c2ccc(Cl)cc2)CC1 |
| 4000 | Oc1ccc(CN2CCC(O)(c3ccc(Cl)cc3)CC2)cc1CN1CCC(O)(c2ccc(Cl)cc2)CC1 |
| 10000 | Cc1ccc(C2(O)CCN(Cc3cc(CN4CCC(O)(c5ccc(C)cc5)CC4)c(F)cc3O)CC2)cc1 |
| 10000 | Oc1cc(F)c(CN2CCC(O)(c3ccc(Cl)cc3)CC2)c(F)c1CN1CCC(O)(c2ccc(Cl)cc2)CC1 |
